Values quoted from earlier work in patent US6495173B1, “Compositions and methods for reducing or controlling blood cholesterol, lipoproteins, triglycerides and atherosclerosis” (priority 2000, dated 2002).

Key:
[1] = human, in vivo
[2] = in vivo
[3] = 500 mcg BID, after 2 and 4 months
[4] = rats
[5] = 75 mg to 600 mg/day, eight years
[6] = 100 mg per day for 30 days
[7] = mean dose of 2,250 mg/day
[8] = large doses (3 to 6 g/day)
[9] = supplement users versus non-users

CC[C@H](C)C(=O)O[C@H]1C[C@@H](C)C=C2C=C[C@H](C)[C@H](CC[C@@H]3C[C@@H](O)CC(=O)O3)[C@H]21 [Lovastatin, lovastatin]
decrease in levels of LDL [1]: 32.4%
decrease in levels of VLDL [1]: 53%
increased liver transaminase levels, share of subjects [2]: 2%
myopathy with a creatine kinase greater than 10 times normal, share of subjects [2]: 0.5%
required discontinuation, share of those treated [2]: 9%

[Cr] [chromium]
blood sugar and cholesterol versus placebo group [3]: lower

chromium picolinate
triglyceride level (supplementation for 2 months (vs. 161)): 133 mg/dL
reduction in triglyceride levels (supplementation for 2 months, P<0.05): 17.4%

CC(C)(C)c1cc(O)ccc1O [TBHQ, tert-butylhydroquinone]
blood cholesterol and triglycerides [4]: reduce

COC1=C(OC)C(=O)C(C/C=C(\C)CC/C=C(\C)CC/C=C(\C)CC/C=C(\C)CC/C=C(\C)CC/C=C(\C)CC/C=C(\C)CC/C=C(\C)CC/C=C(\C)CCC=C(C)C)=C(C)C1=O [Coenzyme Q10]
decreased dependency on drugs [5]: 43%
improvements in myocardial function [5]: 58%
hydroperoxide levels in the LDL3 subfraction [6]: significant decrease
Coenzyme Q10 levels in all three LDL subfractions ([6]; P<0.01): increased

O=C(O)c1cccnc1 [Nicotinic acid]
increase in levels of HDL-cholesterol [7]: 35%
increase in HDL [8]: ≤ 30 mg/dL

vitamin E
absolute risk reduction [9]: 3.4 women per 10,000 woman-years
reduction in relative risk for non-fatal myocardial infarction and death from cardiovascular disease ([9]; average 8 years follow-up, adjusted): 31%
